Values of other authors, collected in patent US20050209551A1, “Detoxification and breast health preparations” (priority 2004, published 2005).

Experiments:
[1] = system: precancerous lesions of the cervix and laryngeal papillomas; conditions: pathologies with a human papillomavirus (HPV); reported
[2] = oral administration

SMILES | clinical effectiveness in treating precancerous lesions of the cervix and laryngeal papillomas [1] | fraction of EDTA absorbed when administered by mouth ([2]; general consensus) | unabsorbed EDTA that remains within the digestive tract ([2]; reported) [%]
OCc1c[nH]c2ccccc12 [Example I3C, indole-3-carbinol] | clinically effective | – | –
c1ccc2c(Cc3c[nH]c4ccccc34)c[nH]c2c1 [DIM, 3,3′-diindolylmethane] | clinically effective | – | –
O=C(O)CN(CCN(CC(=O)O)CC(=O)O)CC(=O)O [EDTA, ethylene-diaminetetraacetic acid] | – | about five | 95
